Results as given in patent US20110027324A1, “O-DESMETHYL-V[…] TREATING MAJOR DEPRESSIVE DISORDER” (Wyeth LLC, priority 2007, published 2011).

Assays:
Format in all cases: in vivo, human
[1] = test system: subjects with a primary diagnosis of MDD; assay: MDD Study No. 1: safety evaluation (AEs, DESS, laboratory, vital signs, ECG); details: for subjects with AEs as reason for study discontinuation: double-blind on-therapy period, placebo 3%; for subjects reporting serious or noteworthy AEs: none in placebo; for subjects with AEs of clinical importance: placebo 4
Description: On study day −1 (baseline), eligible subjects were randomly assigned to 1 of 2 fixed doses of ODV (50 or 100 mg/day) or to placebo for the 8-week double-blind treatment period. A 7-day taper period after the end of double-blind treatment was recommended but may have been omitted, shortened, or lengthened at the discretion of the investigator. Subjects assigned to the ODV 50 mg dose group received their maintenance dose beginning on study day 1 and continued this regimen until study day 56 or early withdrawal. For the taper period (days 1 through 7 after the end of the double-blind treatment period), they received 0 mg. Subjects assigned to the ODV 100 mg dose group were titrated to their maintenance dose. On study days 1 through 7 they received ODV 50 mg/day. Beginning on study day 8, they received their assigned dose of ODV 100 mg/day and continued on this regimen until study day 56 or early withdrawal. For the taper period (days 1 through 7 after the end of the double-blind treatment period), they received ODV 50 mg/day. Subjects assigned to placebo received their maintenance dose (0 mg) from study day 1 through day 56 or early withdrawal, and also received 0 mg during the taper period.
The safety of the two doses was determined using the following assessments: monitoring of adverse events (AEs), withdrawal because of AEs, concomitant medications, physical examinations, standard 12-lead electrocardiograms (ECGs), vital signs (supine and standing pulse rate and blood pressure (BP); body weight), laboratory determinations (hematology, blood chemistry, and urinalysis; free thyroxine index, including total thyroxine and triiodothyronine, and the β-HCG), and the Discontinuation-Emergent Signs and Symptoms (DESS) checklist.

[2] = test system: subjects with a primary diagnosis of MDD; assay: MDD Study No. 2: efficacy evaluation, randomized double-blind placebo-controlled study
Description: This example describes the results of a second multicenter, randomized, double-blind, placebo-controlled, parallel-group study that was also designed to evaluate the efficacy and safety of 50 and 100 mg/day ODV for treating MDD.
Subjects were male or female adults that met the same criteria as the subjects in Example 1. The planned enrollment was 450 subjects. A total of 565 subjects were screened for participation; 80 were screen failures and 485 were randomly assigned to treatment: 161 were assigned to receive placebo, 166 were assigned to receive ODV 50 mg/day; and 158 were assigned to receive ODV 100 mg/day. All 485 randomized subjects were included in the safety population (completed the prestudy period and took at least 1 dose of double-blind study drug). The intent-to-treat [ITT] efficacy population included 483 subjects, and the per-protocol [PP] efficacy population included 440 subjects. Completers for exposure (353 subjects) were defined as subjects who had at least 53 days of exposure to study drug.
The administration protocols for 50 or 100 mg/day and placebo groups were the same as in Example 1.
The primary and secondary outcomes were the same as in Example 1 as were the statistical methods. P-values of less than 0.05 are shown in bold.

[3] = test system: subjects with a primary diagnosis of MDD; assay: MDD Study No. 2: safety evaluation (AEs, DESS, laboratory); details: for subjects with AEs as reason for discontinuation: on-therapy period, placebo 3%
Description: The safety of the two doses was determined using the same assessments as in Example 1. […] Headache was the only TPAE with an incidence≧5% in the placebo group.
The DESS checklist was used to evaluate symptoms that first occurred, or that worsened, during the taper period (the 7-day period after the end of the double-blind treatment period). During this 7-day period, doses of ODV were tapered to 0 mg for subjects in the 50 mg group, and to 50 mg for subjects in the 100 mg group. The DESS checklist was administered to 420 of the 423 subjects who had completed at least 53 days of on-therapy treatment.

[4] = test system: subjects with a primary diagnosis of MDD; assay: MDD Study No. 3: efficacy evaluation, randomized double-blind placebo-controlled study; details: for CGI-S score, Δ from Baseline: baseline 4.3, placebo −1.10; for HAM-D6, Δ from Baseline: placebo −4.82; for MADRS total score, Δ from Baseline: placebo −11.0
Description: This example describes the results of a third multicenter, randomized, double-blind, placebo-controlled, parallel-group study that was also designed to evaluate the efficacy and safety of 50 and 100 mg/day ODV for treating MDD.
Subjects were male or female adults that met the same criteria as the subjects in Example 1. The administration protocols for 50 or 100 mg/day and placebo groups were the same as in Example 1.
The primary and secondary outcomes were the same as in Example 1 as were the statistical methods. A Global F-test was also used to analyze the results. The purpose of this test was to compare the two fixed doses with placebo to control for Type-I error. Statistical significance is met if the p-value for the Global F-test <0.05, followed by un-adjusted pairwise comparison between either dose and placebo at 0.05 significance level.

[5] = 50 mg group, number of subjects
[6] = 100 mg group, number of subjects
[7] = all subjects, 50 and 100 mg/day

CN(C)CC(c1ccc(O)cc1)C1(O)CCCCC1 (stereo not shown) [ODV, 1-[2-(dimethylamino)-1-(4-phenol)ethyl]-cyclohexanol]
most common (incidence≧5%) taper/poststudy-emergent AEs ([1]; 50 mg group): diarrhea, nausea, abnormal dreams, dizziness, and hostility | subjects with AEs as reason for study discontinuation ([1]; 50 mg group, 151 subjects): 3% | p-value, mean DESS scores compared with placebo ([1]; 50 mg group, first week of the taper period): 0.001 | subjects with clinically important AE hypertension [1, 5]: 2 | subjects with clinically important AE hypotension [1, 5]: 2 | subjects with laboratory values considered clinically important by the medical monitor [1, 5]: 2 | subjects reporting serious or noteworthy AEs [1, 5]: 5 | subjects with AEs of clinical importance [1, 5]: 13 | subjects with AEs as reason for study discontinuation ([1]; 100 mg group, 148 subjects): 7% | subjects with clinically important AE hypertension [1, 6]: 1 | subjects with laboratory values considered clinically important by the medical monitor [1, 6]: 3 | subjects reporting serious or noteworthy AEs [1, 6]: 4 | subjects with AEs of clinical importance [1, 6]: 10 | subjects with clinically important vital signs results ([1]; ODV treated subjects, both doses, 3 elevated supine BP, 1 postural hypotension): four | clinically important findings for ECGs or ECG-related AEs [1, 7]: None of the subjects had clinically important findings for ECGs | HAM-D17 total score, adjusted mean change from baseline ([2]; 50 mg/day, FOT evaluation, ANCOVA LOCF, placebo −10.7): −13.2 | HAM-D17 total score, adjusted mean change from baseline ([2]; 50 mg/day, week 8, mixed effect model, placebo −11.5): −14.4 | HAM-D17 total score, adjusted mean change from baseline ([2]; 100 mg/day, FOT evaluation, ANCOVA LOCF, placebo −10.7): −13.7 | HAM-D17 total score, adjusted mean change from baseline ([2]; 100 mg/day, week 8, mixed effect model, placebo −11.5): −14.9 | incidence of nausea leading to discontinuation ([3]; 50 mg group): 1.2% | incidence of sweating leading to discontinuation ([3]; 50 mg group): 1.2% | incidence of vomiting leading to discontinuation ([3]; 50 mg group): 1.2% | most common (incidence≧5%) taper/poststudy-emergent AEs ([3]; 50 mg group): headache, nausea, dizziness, and insomnia | subjects with clinically important elevated SGPT/ALT levels ([3]; 50 mg group): another subject | p-value, mean DESS scores in comparison with placebo ([3]; 50 mg group, during the 7-day taper period): 0.001 | subjects with clinically important increased total cholesterol levels [3, 5]: 1 | subjects with clinically important elevated SGOT/AST levels ([3]; 50 mg group, number of subjects, placebo 1): 1 | subjects with AEs as reason for discontinuation ([3]; 50 mg group): 5% | incidence of anorgasmia in men leading to discontinuation ([3]; 100 mg group): 2.1% | incidence of asthenia leading to discontinuation ([3]; 100 mg group): 1.3% | incidence of headache leading to discontinuation ([3]; 100 mg group): 1.3% | incidence of nausea leading to discontinuation ([3]; 100 mg group): 3.8% | most common (incidence≧5%) TPAEs ([3]; 100 mg group): headache, nausea, depression, dizziness, and vertigo | subjects with AEs as reason for discontinuation ([3]; 100 mg group): 7% | p-value, mean DESS in comparison with placebo ([3]; 100 mg group, week after the 7-day taper period): 0.017 | SAEs during the on-therapy period [3, 7]: None of the subjects had SAEs during the on-therapy period | deaths during the study [3, 7]: No deaths occurred during this study | HAM-D17 total score, Diff. versus Placebo (95% CI) ([4]; 50 mg/day, LOCF): 1.1 (−0.6, 2.7) | HAM-D17 total score, Diff. versus Placebo (95% CI) ([4]; 50 mg/day, MMRM): 1.4 (−0.0, 2.8) | HAM-D17 total score, Diff. versus Placebo (95% CI) ([4]; 50 mg/day, OC): 1.8 (−0.1, 3.6) | CGI-S score, Δ from Baseline ([4]; 50 mg/day): −1.25 | HAM-D6, Δ from Baseline ([4]; 50 mg/day, baseline 12.8): −5.41 | MADRS total score, Δ from Baseline ([4]; 50 mg/day, baseline 30.1): −12.7 | HAM-D17 total score, Diff. versus Placebo (95% CI) ([4]; 100 mg/day, LOCF): 1.8 (0.2, 3.4) | HAM-D17 total score, Diff. versus Placebo (95% CI) ([4]; 100 mg/day, MMRM): 2.2 (0.7, 3.6) | HAM-D17 total score, Diff. versus Placebo (95% CI) ([4]; 100 mg/day, OC): 2.9 (1.0, 4.7) | CGI-S score, Δ from Baseline ([4]; 100 mg/day): −1.44 | HAM-D6, Δ from Baseline ([4]; 100 mg/day, baseline 12.9): −6.15 | MADRS total score, Δ from Baseline ([4]; 100 mg/day, baseline 30.0): −14.4
